Measured values: PubChem BioAssay AID387

Target: Farnesyl pyrophosphate synthase (Homo sapiens) (UniProt P14324)
Test: ligand-induced stabilization of human FDPS – biophysical, DSF, SYPRO orange, purified protein (AID 387)
Settings: DSF thermal shift, at 10 µM, protein 2 µM, buffer 10 mM HEPES, pH 7.5, NaCl 150 mM, MgCl4 50 µM, active compounds read high

Chain of Farnesyl pyrophosphate synthase (Homo sapiens) (P14324 whole entry, looked up): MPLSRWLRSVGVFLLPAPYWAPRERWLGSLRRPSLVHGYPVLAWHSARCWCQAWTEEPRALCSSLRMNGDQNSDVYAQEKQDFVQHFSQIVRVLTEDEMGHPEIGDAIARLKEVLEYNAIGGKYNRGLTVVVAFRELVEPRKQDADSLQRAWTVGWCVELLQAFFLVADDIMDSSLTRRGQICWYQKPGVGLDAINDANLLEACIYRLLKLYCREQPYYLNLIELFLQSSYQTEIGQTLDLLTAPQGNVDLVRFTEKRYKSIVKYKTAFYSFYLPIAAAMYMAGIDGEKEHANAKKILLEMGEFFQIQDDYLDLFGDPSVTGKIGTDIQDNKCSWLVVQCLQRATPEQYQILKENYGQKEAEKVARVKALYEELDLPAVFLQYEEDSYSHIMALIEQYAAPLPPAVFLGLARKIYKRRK

Q: `O=[P+](O)C(O)(Cc1cccnc1)P(=O)(O)O` (stereo unspecified) was tested. Which Tm shift did it give?
A: 4.13 Celsius
